The source of these data is patent US8338392B2, “MicroRNA modulators and method for identifying and using the same” (The Wistar Institute, priority 2008, dated 2012).

“Also recorded” adds a separate entry of the source.

Type in all cases: cell-based, human
The subject of data set [1] is mature miR-21. The experiment in a line: Quantitative RT-PCR of mature miR-21. Conditions: for mature miR-21 expression upon treatment: HCT116 colon cancer cells and A172 glioblastoma cells. From the text: (§1) UNG (Applied Biosystems). […] (Sigma). […] ID NO:18); E-cadherin: forward [NT] ID NO:19), reverse [NT] ID NO:20); Fibronectin: forward [NT] ID NO:21), reverse [NT] ID NO:22); RAP1A: forward [NT] ID NO:23), reverse [NT]

In data set [2] the test system is primary miR-21 (pri-miR-21). Nature of the data set: Quantitative RT-PCR of primary miR-21. As to conditions: for primary miR-21 expression upon treatment: HCT116 colon cancer cells and A172 glioblastoma cells. From the text: UNG (Applied Biosystems). […] (Sigma).
In data set [3] the test system is miR-21. The experiment in a line: Luc-miR-21 luciferase reporter assay in HeLa cells. Conditions: for Luciferase Assay: HeLa cells with Luc-miR-21 reporter, screen at 10 μM, 48 hours. From the text: (§2) MicroRNA miR-21 was selected as a target miRNA due to its involvement as an anti-apoptotic factor in cancer cells and its elevated levels in various cancers such as breast, ovarian, and lung cancer as well as glioblastoma (Chan, et al. (2005) Cancer Res. 65:6029). Lentiviral reporter constructs for miRNA activity were assembled by introducing the complementary sequences of mature miR-21 (5′-UAGCUUAUCAGACUGAUGUUGA-3′; SEQ ID NO:13), miR-30A (5′-CUUUCAGUCGGAUGUUUGCAGC-3′; SEQ ID NO:14) as a specificity control, and a linker sequence (a previously present multiple-cloning site with no detectable recognition by natural miRNAs) downstream of a luciferase reporter gene as a negative control (FIG. 1).
(§3) Luc-miR-21, Luc-miR-30A, and Luc-linker (control) were, by viral infection, introduced into HeLa cells, which express high levels of miR-21, but only low levels of miR-30A (Cheng, et al. (2005) Nucl. Acids Res. 33:1290).
To illustrate the method of the present invention, a primary screen of >1000 compounds was conducted. The library was composed of a collection of novel compounds and the Library of Pharmacologically Active Compounds (LOPAC library, Sigma-Aldrich, St Louis, Mo.). All compounds were stored at a 10 mM concentration in DMSO to keep the DMSO concentration in the actual screen at 0.1% thereby minimizing toxicity. HeLa cells stably expressing the miR-reporter were treated with DMSO ranging from 0.1-1%. Luciferase signals were determined 48 hours after the treatment.
HeLa cells (2500 cells) were plated in each well of 384-well plate 24 hour before the addition of compounds. Compounds at 10 μM final concentration were added to each well. Luciferase signal were determined 48 hours after compound treatment. Using this screening assay, compound 1 was identified as a miR-21 antagonist.

Data set [4] has as its system Luc-Linker control. Nature of the data set: Luc-Linker control luciferase reporter in HeLa cells. Conditions: 10 μM, relative to DMSO, listed as diazobenzene 2.
From the text: as §2, §3
(§4) It was subsequently determined whether Compound 2 was a specific inhibitor of miR-21 or whether it could interfere with the general miRNA biogenesis pathway. Thus, HeLa cells stably expressing both the miR-30 luciferase reporter construct and miR-30 were treated with Compound 2.
(In a reporter assay the amount or activity of a reporter protein is the signal.)

For data set [5], the system named is miR-30. Nature of the data set: miR-30 luciferase reporter in HeLa cells expressing miR-30. As to conditions: HeLa cells expressing miR-30 reporter and miR-30, 10 μM.
From the text: as §2
The specificity of the reporter system was tested by assaying cells which contained both the Luc-miR-30A reporter and a construct expressing exogenous miR-30.
as §4

The test system of data set [6] is mature miR-30. Nature of the data set: Quantitative RT-PCR of mature miR-30. As to conditions: MDA-MB-231, MCF-7 and A172 cell lines.
From the text: as §1

The subject of data set [7] is mature miR-93. The experiment in a line: Quantitative RT-PCR of mature miR-93. As to conditions: MDA-MB-231, MCF-7 and A172 cell lines.
From the text: as §1

In data set [8] the test system is HCT116 colon cancer cells. Nature of the data set: Cell proliferation of HCT116 cells, drug combinations. From the text:
The % activity indicates % live cell activity.

Setting [9] is: MDA-MB-231, MCF-7 and A172 cell lines.

For `O=c1[nH]cc(F)c(=O)[nH]1` [Compound 5-FU, 5-fluorouracil], the “mature miR-21 expression upon treatment” value in data set [1] was “increased”. Besides, the “primary miR-21 expression upon treatment” value in data set [2] is on record as “increased”.
For `C#CCNC(=O)c1ccc(/N=N/c2ccccc2)cc1` [Compound 2, (E)-4-(Phenyldiazenyl)-N-(prop-2-ynyl)benzamide], in data set [3] (10 μM, HeLa cells), the “fold increase of the luciferase signal” value amounted to 5 fold. Besides, the “Luciferase Assay” value in data set [3] is on record as 4.83. Also, the “effect on luciferase signal, Luc-Linker control” value in data set [4] is “does not affect; also recorded: did not affect the luciferase signal”. Further, the “effect on luciferase signal, miR-30 reporter” value in data set [5] is “no increase of the luciferase signal was detected”; in data set [5] (listed as diazobenzene 2), “does not affect”. For the same compound, the “effect on mature miR-21” value in data set [1] (setting [9]) is on record as “suppressed”. The “effect on mature miR-30” value in data set [6] is reported as “no effect”. Besides, the “effect on mature miR-93” value in data set [7] is recorded as “no effect”. Moreover, the “effect on primary miR-21” value in data set [2] (setting [9]) is listed as “suppressed”. In addition, the “proliferation of HCT116 cells, combination with 5-FU” value in data set [8] (combination with 5-FU) was “synergistic effect; also recorded: synergistically decrease the proliferation”. For the same compound, the “proliferation of HCT116 cells, combination with Curcumin” value in data set [8] (combination with Curcumin) is reported as “synergistic effect; also recorded: synergistically decrease the proliferation”.
As to `COc1cc(/C=C/C(=O)CC(=O)/C=C/c2ccc(O)c(OC)c2)ccc1O` [Curcumin, curcumin], in data set [1], the “mature miR-21 expression upon treatment” value was “increased”. Moreover, in data set [2], the “primary miR-21 expression upon treatment” value is recorded as “increased”.
Take `C#CCNC(=O)c1ccc(NNc2ccccc2)cc1` [Compound 3]: the “Luciferase Assay” value in data set [3] worked out at 3.67.
The same measure, in the same setting: with `COc1ccc2c(c1N)CCC1C2CC[C@]2(C)C(=O)CCC12` (stereo partly shown) [Compound 7] the figure was 3.04-3.87; with `Cn1c2c(c3ccccc3c1=O)C(=O)c1cc3c(cc1-2)OCO3` [Compound 4], 3.12; with `COc1cc2c(cc1N)C1CC[C@]3(C)C(=O)CCC3C1CC2` (stereo partly shown) [Compound 8], 3.50.
Still for that read-out and setting: the figure for `C[C@]12CC[C@@H]3c4ccc(O)cc4CC[C@H]3[C@@H]1CCC2=O` [Estrone, estrone, reference compound] is 2.76; for `COc1ccc2c(c1[N+](=O)[O-])CCC1C2CC[C@]2(C)C(=O)CCC12` (stereo partly shown) [Compound 6] it is 3.34.
Same read-out and setting: with `O=C1c2cc3c(cc2-c2[nH]c(=O)c4ccccc4c21)OCO3` [Compound 5] the figure was 2.92.
